Source: patent publication US7151093B2, “Use of sphingosine 1-phosphate as active ingredient for the treatment of pulmonary fibrosis” (Ono Pharmaceutical Co., Ltd., priority 1999, dated 2006)

Tested on: Bleomycin-induced Lung Injury Model Animal
Assay: Bleomycin-induced lung injury model, lung tissue hydroxyproline content
Type: in vivo, ICR male mice
Method: Production of Bleomycin-induced Lung Injury Model Animal:
Using each of ICR male mice and under pentobarbital (60 mg/kg, i.v.) anesthesia, the cervical region was shaved and the skin was incised for about 4 mm from under the larynx region along the median line. Next, the muscle layer covering upper trachea was peeled off to expose the trachea. Using a micro-syringe, physiological saline or bleomycin hydrochloride (0.03 mg/animal, manufactured by Nippon Kayaku) was administered tracheally (50 μl/animal) from the tracheal smooth muscle region between cricoid cartilage. After the administration, the incised region was closed and antibiotics were administered into the thigh intramuscularly in order to prevent infection. S1P (10 mg/5 ml/kg, 0.5% aqueous solution of carboxymethylcellulose sodium (CMC.Na)-physiological saline, manufactured by Matreya) was intraperitoneally administered once a day for 14 days after the bleomycin induction. […]
The hydrolyzed supernatant (25 μl) was mixed with borate-alanine buffer (2.475 ml) separately prepared, and potassium chloride (solid) was added thereto until it was saturated. […] The absorbance of each sample was immediately measured at 560 nm, and the amount of hydroxyproline in the sample was calculated from a calibration curve.
The inhibition ratio was calculated by the following equation. […]

## CCCCCCCCCCCCC/C=C/[C@H](O)[C@H](N)COP(=O)(O)O (stereo in doubt) [S1P, sphingosine 1-phosphate]
[{(C−B)−(S−B)}÷(C−B)]×100, S1P 10 mg/kg i.p. once a day for 14 days, ICR male mice
  Inhibition ratio: suppression of bleomycin-induced increase of hydroxyproline content: ca. 90%
bleomycin-induced (0.03 mg/animal, tracheal) ICR male mice, S1P 10 mg/5 ml/kg i.p. once a day for 14 days, lung excised fifteen days after induction
  Hydroxyproline content: 227.8 ± 17.5 μg/lung
